Reference: US20090253692A1, “CRYSTALLINE FORM OF N-[[4-FLUORO-2-(5-METHYL-1H-1,2,4-TRIAZOL-1-YL)PHENYL]METHYL]-4,6,7,9-TETRAHYDRO-3-HYDROXY-9,9-DIMETHYL-4-OXO-PYRIMIDO[2,1-C][1,4]OXAZINE-2-CARBOXAMIDE, SODIUM SALT MONOHYDRATE” (Bristol-Myers Squibb Company, priority 2008, published 2009)
“Also recorded” adds a separate entry of the source. Like-named read-outs stand apart in the source and are kept apart here.

Legend:
[1] = Dust hazard analysis: ignition sensitivity of dust cloud; assay type: physicochemical; details: for Susceptibility to ignition as a dust cloud: result in words
Excerpt: (§1) “μm” means micrometer. “gm” means gram. “cc” means cubic centimeter. “gm/cc” means gram per cubic centimeter. “Kst” is the deflagration index of a dust expressed in bar-meter per second. “bar-m/s” means bar meter per sec. “bar/s” means bar per second. “mJ” means millijoules. “St” is the geneal classification designation for explosible dusts: “St-2” is classified as a strong explosion designation and has Kst>200 bar-m/sec; “St-1” is not classified as a strong explosion and has Kst<200 bar-m/sec.
(§2) Twenty liter sphere testing (see Proust, C.; Accorsi, A.; Dupont, L. Journal of Loss prevention in the Process Industries, vol. 20, 2007.) places the sample in the St-2 (strong explosion) class with a Kst value of 238 bar-m/s.
(§3) Therefore, twenty liter sphere testing was not required.

[2] = Dust hazard analysis: explosion severity (twenty liter sphere testing), Kst and St classification; assay type: physicochemical; details: for Explosion Severity (Max Pressure) / Explosion Severity (Max rate): dust explosion risk; for St Classification: general classification designation for explosible dusts
Excerpt: as §1, §2, §3

[3] = Dust hazard analysis: charge decay time estimation; assay type: physicochemical
[4] = Particle size analysis using an Aerosizer instrument; assay type: physicochemical
[5] = Bulk and true densities; assay type: physicochemical
[6] = Moisture content by weight loss in vacuum oven; assay type: physicochemical; details: 5 gm in a vacuum oven at 60° C. for six hours
Protocol: Particle analysis. […] The sample was checked for moisture content by placing 5 gm in a vacuum oven at 60° C. for six hours and checking weight loss. The free acid lost 0.22% of its initial weight. […] The sample was checked for moisture content by placing 5 gm in a vacuum oven at 60° C. for six hours and checking weight loss. The salt monohydrate lost 0.18% of its initial weight.

[7] = target: HIV integrase (Human immunodeficiency virus type 1 group M subtype B, UniProt P04585); details: result in words, see U.S. Pat. No. 7,176,196, sodium salt monohydrate, cited from earlier work

| Compound | Minimum Ignition Energy ([1]; dust explosion risk) [mJ] | Minimum Ignition Temperature ([1]; dust explosion risk) [°C] | Susceptibility to ignition as a dust cloud [1] | Explosion Severity (Max Pressure) [2] [bar] | Explosion Severity (Max rate) [2] [bar/s] | St Classification [2] | Explosion characteristics ([2]; result in words) | Charge Decay Time Estimation [3] [min] | Particle size, 95% of sample below [4] [μm] | Particle size, mean value [4] [μm] | Bulk density [5] [gm/cc] | True density [5] [gm/cc] | Moisture content: loss of initial weight [6] [%] | Binding to and antagonism / inhibition of HIV integrase ([7]; listed as Compound I) | Binding to and antagonism / inhibition of HIV integrase [7] | Kst value ([2]; deflagration index of a dust) [bar · m/s] | Kst value ([2]; twenty liter sphere testing) [bar-m/s] |
| --- | --- | --- | --- | --- | --- | --- | --- | --- | --- | --- | --- | --- | --- | --- | --- | --- | --- |
| Cc1ncnn1-c1cc(F)ccc1CNC(=O)c1nc2n(c(=O)c1[O-])CCOC2(C)C.[Na+] [Compound (I), N-[[4-fluoro-2-(5-methyl-1H-1,2,4-triazol-1-yl)phenyl]methyl]-4,6,7,9-tetrahydro-3-hydroxy-9,9-dimethyl-4-oxo-pyrimido[2,1-c][1,4]oxazine-2-carboxamide, sodium salt monohydrate] | >500 | >600 | low susceptibility to ignition as a dust cloud | 1.5 | 154 | St-1 (“St-1” is not classified as a strong explosion and has Kst<200 bar-m/sec) | weak to moderate explosion characteristics | 33 | < 33.6 | 14.8 | 0.42 | 1.53 | 0.18 | demonstrated inhibition of HIV integrase | potently bind to and act as an antagonist to HIV integrase | – | – |
| Cc1ncnn1-c1cc(F)ccc1CNC(=O)c1nc2n(c(=O)c1O)CCOC2(C)C [Free acid] | – | – | extremely susceptible to igniting as a dust cloud; also recorded: high susceptibility to ignition and risk for explosion | 8.2 | 878 | St-2 (“St-2” is classified as a strong explosion designation and has Kst>200 bar-m/sec) | – | 330 | < 32.9 | 16.3 | 0.34 | 1.40 | 0.22 | – | – | 238 | 238 |
